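Test compounds were applied to cells in 96-well plates for 48 hours at 5 doses. Here, GI50 denotes the concentration required for 50% inhibition of growth. At the TGI there is no net growth.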
Columns and labels:
Experiment in all cases: NCI anticancer screen, dose series, 48 h
786-0 renal = system: 786-0 renal
A498 renal = system: A498 renal
ACHN renal = system: ACHN renal
BT-549 breast = system: BT-549 breast
CAKI-1 renal = system: CAKI-1 renal
CCRF-CEM leukemia = system: CCRF-CEM leukemia
COLO 205 colon = system: COLO 205 colon
DU-145 prostate = system: DU-145 prostate
EKVX NSCLC = system: EKVX NSCLC
HCC-2998 colon = system: HCC-2998 colon
HCT-116 colon = system: HCT-116 colon
HCT-15 colon = system: HCT-15 colon
HL-60(TB) leukemia = system: HL-60(TB) leukemia
HOP-62 NSCLC = system: HOP-62 NSCLC
HOP-92 NSCLC = system: HOP-92 NSCLC
HS 578T breast = system: HS 578T breast
HT29 colon = system: HT29 colon
IGROV1 ovarian = system: IGROV1 ovarian
K-562 leukemia = system: K-562 leukemia
KM12 colon = system: KM12 colon
MCF7 breast = system: MCF7 breast
MOLT-4 leukemia = system: MOLT-4 leukemia
NCI-H226 lung = system: NCI-H226 lung
NCI-H460 lung = system: NCI-H460 lung
NCI/ADR-RES ovarian = system: NCI/ADR-RES ovarian
OVCAR-3 ovarian = system: OVCAR-3 ovarian
OVCAR-4 ovarian = system: OVCAR-4 ovarian
OVCAR-5 ovarian = system: OVCAR-5 ovarian
RPMI-8226 leukemia = system: RPMI-8226 leukemia
RXF 393 renal = system: RXF 393 renal
SF-268 CNS = system: SF-268 CNS
SF-295 CNS = system: SF-295 CNS
SF-539 CNS = system: SF-539 CNS
SK-MEL-2 melanoma = system: SK-MEL-2 melanoma
SK-MEL-5 melanoma = system: SK-MEL-5 melanoma
SK-OV-3 ovarian = system: SK-OV-3 ovarian
SNB-19 CNS = system: SNB-19 CNS
SNB-75 CNS = system: SNB-75 CNS
SR leukemia = system: SR leukemia
SW-620 colon = system: SW-620 colon
T-47D breast = system: T-47D breast
U251 CNS = system: U251 CNS
UACC-257 melanoma = system: UACC-257 melanoma
UACC-62 melanoma = system: UACC-62 melanoma
UO-31 renal = system: UO-31 renal

Fc1ccc(-c2cc3nc(C(Cl)Cl)nc(-c4ccc(F)cc4)n3n2)cc1
GI50 (786-0 renal): 16.9 µM
TGI (786-0 renal): > 100 µM
GI50 (A498 renal): 1.65 µM
TGI (A498 renal): 3.44 µM
GI50 (ACHN renal): 0.676 µM
TGI (ACHN renal): 4.16 µM
GI50 (BT-549 breast): 2.43 µM
TGI (BT-549 breast): 42.8 µM
GI50 (CAKI-1 renal): 1.89 µM
TGI (CAKI-1 renal): 6.74 µM
GI50 (CCRF-CEM leukemia): 4.21 µM
TGI (CCRF-CEM leukemia): > 100 µM
GI50 (COLO 205 colon): 1.15 µM
TGI (COLO 205 colon): 2.52 µM
GI50 (DU-145 prostate): 0.443 µM
TGI (DU-145 prostate): 2.97 µM
GI50 (EKVX NSCLC): 1.68 µM
TGI (EKVX NSCLC): 4.37 µM
GI50 (HCC-2998 colon): 1.01 µM
TGI (HCC-2998 colon): 2.35 µM
GI50 (HCT-116 colon): 0.637 µM
TGI (HCT-116 colon): 6.3 µM
GI50 (HCT-15 colon): 1.11 µM
TGI (HCT-15 colon): 6.16 µM
GI50 (HL-60(TB) leukemia): 0.69 µM
GI50 (HOP-62 NSCLC): 1.5 µM
TGI (HOP-62 NSCLC): 4.26 µM
GI50 (HOP-92 NSCLC): 2.6 µM
TGI (HOP-92 NSCLC): 9.69 µM
GI50 (HS 578T breast): 4.14 µM
TGI (HS 578T breast): > 100 µM
GI50 (HT29 colon): 0.746 µM
TGI (HT29 colon): 3.85 µM
GI50 (IGROV1 ovarian): 3.99 µM
TGI (IGROV1 ovarian): > 100 µM
GI50 (K-562 leukemia): 2.3 µM
TGI (K-562 leukemia): > 100 µM
GI50 (KM12 colon): 1.73 µM
TGI (KM12 colon): 5.22 µM
GI50 (MCF7 breast): 1.21 µM
TGI (MCF7 breast): > 100 µM
GI50 (MOLT-4 leukemia): 1.8 µM
TGI (MOLT-4 leukemia): 9.61 µM
GI50 (NCI-H226 lung): 6.14 µM
TGI (NCI-H226 lung): > 100 µM
GI50 (NCI-H460 lung): 0.591 µM
TGI (NCI-H460 lung): 3.17 µM
GI50 (NCI/ADR-RES ovarian): 1.26 µM
TGI (NCI/ADR-RES ovarian): 5.84 µM
GI50 (OVCAR-3 ovarian): 1.54 µM
TGI (OVCAR-3 ovarian): 3.51 µM
GI50 (OVCAR-4 ovarian): 1.82 µM
TGI (OVCAR-4 ovarian): 5.75 µM
GI50 (OVCAR-5 ovarian): 2.27 µM
TGI (OVCAR-5 ovarian): 7.29 µM
GI50 (RPMI-8226 leukemia): 2.66 µM
TGI (RPMI-8226 leukemia): > 100 µM
GI50 (RXF 393 renal): 1.1 µM
TGI (RXF 393 renal): 2.43 µM
GI50 (SF-268 CNS): 2.48 µM
TGI (SF-268 CNS): > 100 µM
GI50 (SF-295 CNS): 2.17 µM
TGI (SF-295 CNS): 5.78 µM
GI50 (SF-539 CNS): 3.56 µM
TGI (SF-539 CNS): > 100 µM
GI50 (SK-MEL-2 melanoma): > 100 µM
TGI (SK-MEL-2 melanoma): > 100 µM
GI50 (SK-MEL-5 melanoma): > 100 µM
TGI (SK-MEL-5 melanoma): > 100 µM
GI50 (SK-OV-3 ovarian): 2.36 µM
TGI (SK-OV-3 ovarian): 6.34 µM
GI50 (SNB-19 CNS): 1.65 µM
TGI (SNB-19 CNS): 6.88 µM
GI50 (SNB-75 CNS): 64.9 µM
TGI (SNB-75 CNS): > 100 µM
GI50 (SR leukemia): 1.4 µM
TGI (SR leukemia): > 100 µM
GI50 (SW-620 colon): 1.11 µM
TGI (SW-620 colon): 6.85 µM
GI50 (T-47D breast): 2.62 µM
TGI (T-47D breast): > 100 µM
GI50 (U251 CNS): 1.22 µM
TGI (U251 CNS): 5.27 µM
GI50 (UACC-257 melanoma): 2.26 µM
TGI (UACC-257 melanoma): 4.91 µM
GI50 (UACC-62 melanoma): 3.21 µM
TGI (UACC-62 melanoma): > 100 µM
GI50 (UO-31 renal): 3.1 µM
TGI (UO-31 renal): > 100 µM
